# Columns and labels:
# RAR [1] = assay: GAL-RAR model, specificity profile (transient transfection of HeLa cells)
# Source text: (§8) Studies of the transactivational specificity of the retinoids have been carried out by transitory transfection of HeLa cells. Two types of chimerical receptors can then be expressed by the cells. […] The C region (domain of bonding to the DNA) and the A and B regions (AF-1 activation domain) are suppressed.
# (§9) These chimerical receptors activated by an agonist specifically stimulate the transcription of the gene of the luciferase present in a co-transfected plasmid ((17M)5-βG-Luc) where 17M is the response element of Gal4.
# T-47D cells = assay: Anti-proliferation effect, estrogen-induced growth of T-47D cells; type: cell-based, human
# Procedure: (§1) So as to test the anti-proliferation effect of the retinoids, growth experiments under oestrogenic conditions were carried out on cells MCF-7 and T-47D. These are the human estrogen-dependent mammary cancer cells which express the receptor to RE estrogens. The effect of the molecules is evaluated after 7 days of culture in oestrogenic conditions (estradiol 10^-9 M) by dosing the cellular DNA. The cells are distributed in 24 well plates at a density of 2×10^4 cells per well. The tests with the different retinoids are carried out in triplicate and the culture medium is changed after 4 days of growth.
# (§2) The effect of the retinoids on the growth of MCF-7 and T-47D cells is evaluated after 7 days of culture in the presence of 10^-9 M estradiol by dosing the cellular DNA.
# RARβ [2] = assay: Transactivation of chimerical receptor GAL4-RARβ, transient transfection of HeLa cells (luciferase)
# Source text: as §8, §9
# MCF-7 cells = assay: Anti-proliferation effect, estrogen-induced growth of MCF-7 cells; type: cell-based, human
# Procedure: as §1, §2
# RARE [3] = assay: HRL+N transactivation (stably transfected HeLa, RARE reporter, endogenic receptors); type: cell-based
# Source text: (§3) The cellular lineages HRLN and HRL+N allow one to study the activation of an RARE by endogenic receptors using ligands at physiological concentrations. These lineages derive from HeLa cells transfected in a stable fashion by a reporter gene which places the expression of the gene of the luciferase under the control of a nuclear response element RARE (RARE3 -tk-Luc). The HeLa cells express all the known receptors of the retinoic acid (RARα,β,γ and RXRα,β,γ) with a predominance of RARα and RXRα. The response element RARE used for the HRLN cells corresponds to the sequence of the natural gene of the RARβ receptor (GGTTCAnnnnnAGTTCA). The HRL+N cells comprise the sequence GAGTGAnnnnnCGGTGA.
# The HRL+N lineage allows one to visualize a co-activation of the RAR and RXR receptors at the level of the RAR-RXR hetero-dimer.
# RARγ = assay: Transactivation of chimerical receptor GAL4-RARγ, transient transfection of HeLa cells (luciferase)
# Source text: as §8, §9
# AP-1 = assay: Anti-AP-1 effect, MTLN cellular lineage (MCF-7 with (TRE)3-tk-Luc) activated by TPA; type: cell-based, human; conditions: for Anti-AP-1 effect, Inhibition (%): 10^-7 M TPA, range of several experiments
# Procedure: The anti-factor AP-1 transrepressor effect of retinoids is determined using the MTLN lineage, coming from MCF-7 cells transfected in a stable fashion by a vector p(TRE)3 -tk-Luc which places the expression of the gene of luciferase under the control of […]. TPA activates the AP-1 complex formed from proteins of the family of nuclear proto-oncogenes (c-Jun and c-Fos). […] The experiments ware made with the MTLN cells activated by 10^-7 M TPA.
# The effect of the compounds on the MTLN cells activated by 10^-7 M TPA is expressed as a percentage. […] The inhibitive properties of the products are calculated after deduction of the base activity of the cells. The percentages reported correspond to a range of inhibitions determined from several experiments.
# RARβ [4] = assay: Transactivation of chimerical receptor RARβ-ERcassette, transient transfection of HeLa cells; type: cell-based
# Source text: (§4) The HeLa cells are co-transfected by a plasmid which codes for a retinoic receptor in which the C domain of bonding to the DNA is substituted by that of the receptor to RE estrogens, and a plasmid which places the expression of the luciferase under the control of an ERE (Element of Response to Estrogens). The expressed chimerical receptors are designated as RARα-ERcassette, RARβ-ERcassette, RARγ-ERcassette and RXRα-ERcassette. The A, B, D, E and F regions of the natural receptor are preserved as well as the transcriptional co-operation between the activation domains AF-1 and AF-2. These transitory transfection experiments follow the method of co-precipitation to calcium phosphate. The HeLa cells are co-transfected by […] of plasmid coding for the chimerical receptor, […] of reporter plasmid and […] of expression vector CMV-β-galactosidase used as an internal control of transfection. 24 hours after the transfection, the cells are incubated for 16 hours with the different effectors.
# (§5) In this type of chimerical receptor, the C domain of bonding to the DNA of RAR is substituted by that of the receptor to the RE estrogens. The protein obtained is close to the natural RAR receptor and preserves the transcriptional properties of the AF-1 and AF-2 domains. It modulates the transcription by means of an ERE. This RAR-ERcassette model allows one to observe a transcriptional response to a more physiological ligand.
# (§6) The study of the selectivity of the compounds was carried out with the RAR-ERcassette chimerical receptors model.
# (§7) On one and the same line in the Table, the cis (Z) compound represents the isomeric structure of the trans (E) compound.
# RARE [5] = assay: HRLN transactivation (stably transfected HeLa, RARE3-tk-Luc, endogenic receptors); type: cell-based
# Source text: as §3
# RARα [6] = assay: Transactivation of chimerical receptor GAL4-RARα, transient transfection of HeLa cells (luciferase)
# Source text: as §8, §9
# ERE [7] = assay: Anti-estrogenic effect, MELN cellular lineage (MCF-7 with ERE-βGlob-Luc) activated by estradiol; type: cell-based, human; conditions: Homo sapiens, read-out: Anti-oestrogenic effect, Inhibition (%)
# Procedure: MCF-7 cells express RARα,γ and RXRα. The transfection of MCF-7 cells by an estrogen-dependent gene (ERE-βGlob-Luc) has permitted the establishment of the MELN cellular lineage, used to determine the anti-oestrogenic activity of the retinoids. These cells contain the gene of the luciferase under the transcriptional control of the promoter of the βGlobine and of the response element ERE isolated from the gene of chicken vitelogenine A2. The experiments are carried out with MELN cells activated by 10^-9 M estradiol. The level of base activity of the MELN cells is obtained with the anti-estrogen 1 μM 4-OH-tamoxifen (hydroxytamoxifen).
# The effect of the products tested on the cells activated by 10^-9 M estradiol is expressed as a percentage, the level of base activity being deducted.
# RAR [8] = assay: RAR-ERcassette model, specificity profile (transient transfection of HeLa cells); type: cell-based
# Source text: as §4, §5, §6
# ERE [9] = conditions: cited from earlier work
# RARα [10] = assay: Transactivation of chimerical receptor RARα-ERcassette, transient transfection of HeLa cells; type: cell-based; conditions: -9 log M; 100% = TTNPB 10^-8 M
# Source text: as §4, §5, §6, §7
structure (smiles),measurement,setting,value
C=C(c1ccc(C(=O)O)cc1)c1cc2c(cc1C)C(C)(C)CCC2(C)C [LGD1069],GAL-RAR agonist profile in words,RAR [1],do not allow one to observe a good transactivation mediated by RAR
same,Effect on growth of T-47D cells in words,T-47D cells; estrogenic conditions,no effect whatsoever on the growth
same,"GAL4-RARβ activity, % of activity measured for 10^-8 M TTNPB",RARβ [2]; Concentration -7 (log M),5%
same,"GAL4-RARβ activity, % of activity measured for 10^-8 M TTNPB",RARβ [2]; Concentration -8 (log M),1%
same,Effect on growth of MCF-7 cells in words,MCF-7 cells; estrogenic conditions,no effect whatsoever on the growth
same,HRL+N transactivation in words,RARE [3],more effective than the RAR specific molecules
same,"GAL4-RARγ activity, % of activity measured for 10^-8 M TTNPB",RARγ; Concentration -6 (log M),29%
same,"GAL4-RARγ activity, % of activity measured for 10^-8 M TTNPB",RARγ; Concentration -7 (log M),8%
same,"GAL4-RARγ activity, % of activity measured for 10^-8 M TTNPB",RARγ; Concentration -8 (log M),1%
same,Anti-AP-1 effect (MTLN) in words,AP-1,most effective compound tested in this model
same,RARβ transactivation (RAR-ERcassette) in words,RARβ [4],transcriptional power appears higher notably through the RARβ-ERcassette
"CC1=C(/C=C/C(C)=C/C=C/C(C)=C/C(=O)O)C(C)(C)CCC1 [ttRA, all trans retinoic acid]",GAL-RAR agonist profile in words,RAR [1],good RAR agonists
same,IC50,"T-47D cells; Homo sapiens, T47D, 168 h, read-out: T-47D IC50 (growth inhibition by 50%)",39.1 nM
same,HRLN transactivation in words,RARE [5],dose-dependent activation
same,EC50,"RARE [5]; Homo sapiens, HeLa, concentrations from 1 nM to 1 μM, read-out: HRLN transactivation EC50",2.5 ± 4 nM
same,Emax,"RARE [5]; Homo sapiens, HeLa, read-out: HRLN transactivation E max %",208%
same,"GAL4-RARα activity, % of activity measured for 10^-8 M TTNPB",RARα [6]; Concentration -6 (log M),108%
same,"GAL4-RARα activity, % of activity measured for 10^-8 M TTNPB",RARα [6]; Concentration -7 (log M),102%
same,"GAL4-RARα activity, % of activity measured for 10^-8 M TTNPB",RARα [6]; Concentration -8 (log M),82%
same,"GAL4-RARβ activity, % of activity measured for 10^-8 M TTNPB",RARβ [2]; Concentration -6 (log M),92%
same,"GAL4-RARβ activity, % of activity measured for 10^-8 M TTNPB",RARβ [2]; Concentration -7 (log M),93%
same,"GAL4-RARβ activity, % of activity measured for 10^-8 M TTNPB",RARβ [2]; Concentration -8 (log M),104%
same,inhibition at 0.1 µM,ERE [7],35%
same,RAR-ERcassette profile in words,RAR [8],induce an over-expression of luciferase in comparison to the induction brought about by a synthetic compound (TTNPB)
same,IC50,"MCF-7 cells; Homo sapiens, MCF7, 168 h, read-out: MCF-7 IC50 (growth inhibition by 50%)",14.1 ± 10.3 nM
same,Effect on cellular growth and expression of estrogen-dependent genes,ERE [9],reduces the cellular growth and the expression of estrogen-dependent genes
same,RAR-ERcassette RARα transactivation (%),RARα [10],65%
same,"Anti-AP-1 effect, Inhibition (%)",AP-1; -7 log M,28-44%
same,"Anti-AP-1 effect, Inhibition (%)",AP-1; -8 log M,22-33%
